Source: patent US4742053A, “3-Isoquinoliniomethyl cephalosporin derivatives” (Banyu Pharmaceutical Co., Ltd., priority 1984, dated 1988)
Converted amounts (≈) assume the structure as drawn. Like-named read-outs stand apart in the source and are kept apart here.

Columns and labels:
Assay in all cases: MIC by agar plate dilution method
Type in all cases: cell-based
[1] = test system: P. aeruginosa AKR17; details: Pseudomonas aeruginosa, AKR17, P. aeruginosa AKR17; 10^6 CFU/ml; read-out: Minimum Inhibitory Concentration
Method: (§1) The minimum inhibitory concentrations (MIC: μg/ml) of the compounds of the present invention against various microorganisms were measured by an agar plate dilution method (inoculum size: 10^6 CFU/ml) by using Sensitivity Disk Agar (Nissui) in comparison with Cefotaxime and Ceftazidime as comparative compounds.
(§2) Minimum Inhibitory Concentration (μg/ml; 10^6 CFU/ml)

[2] = test system: P. aeruginosa AK109; details: Pseudomonas aeruginosa, AK109, P. aeruginosa AK109; 10^6 CFU/ml; read-out: Minimum Inhibitory Concentration
Method: as §1, §2

[3] = test system: P. cepacia 23; details: Burkholderia cepacia; P. cepacia 23; 10^6 CFU/ml; read-out: Minimum Inhibitory Concentration
Method: as §1, §2

[4] = test system: P. mirabilis JY10; details: Proteus mirabilis
Method: as §1, §2

[5] = test system: E. coli CSH; details: Escherichia coli, 10^6 CFU/ml, read-out: Minimum Inhibitory Concentration
Method: as §1, §2

[6] = test system: E. coli W3630/Rms212; details: Escherichia coli, W3630/RMS212, read-out: Minimum Inhibitory Concentration, E. coli W3630/Rms212; 10^6 CFU/ml
Method: as §1, §2

[7] = test system: E. coli NIHJJC-2; details: Escherichia coli, NIHJJC2, E. coli NIHJJC-2; 10^6 CFU/ml; read-out: Minimum Inhibitory Concentration
Method: as §1, §2

[8] = test system: S. marcescens No. 16-2; details: Serratia marcescens, NO.162; S. marcescens No. 16-2; 10^6 CFU/ml; read-out: Minimum Inhibitory Concentration
Method: as §1, §2

[9] = test system: E. coli W3630/Rms213; details: Escherichia coli, W3630/RMS213, read-out: Minimum Inhibitory Concentration, E. coli W3630/Rms213; 10^6 CFU/ml
Method: as §1, §2

[10] = test system: E. cloaceae Nek 39; details: E. cloaceae Nek 39; 10^6 CFU/ml; read-out: Minimum Inhibitory Concentration
Method: as §1, §2

[11] = test system: P. vulgaris OB1043; details: Proteus vulgaris, OB1043, P. vulgaris OB1043; 10^6 CFU/ml; read-out: Minimum Inhibitory Concentration
Method: as §1, §2

[12] = test system: E. coli CSH2; details: Escherichia coli, 10^6 CFU/ml, read-out: Minimum Inhibitory Concentration
Method: as §1, §2

[13] = test system: A. calcoaceticus No. 14; details: Acinetobacter calcoaceticus, NO.14, A. calcoaceticus No. 14; 10^6 CFU/ml; read-out: Minimum Inhibitory Concentration
Method: as §1, §2

[14] = test system: E. coli C/Rms149; details: Escherichia coli, read-out: Minimum Inhibitory Concentration, E. coli C/Rms149; 10^6 CFU/ml
Method: as §1, §2

[15] = test system: K. pneumoniae No. 42; details: Klebsiella pneumoniae
Method: as §1, §2

[16] = test system: S. aureus NIHJJC-1; details: Staphylococcus aureus, NIHJJC1, S. aureus NIHJJC-1; 10^6 CFU/ml; read-out: Minimum Inhibitory Concentration
Method: as §1, §2

[17] = test system: E. coli ML1410/Rte16; details: Escherichia coli, ML1410/RTE16, read-out: Minimum Inhibitory Concentration, E. coli ML1410/Rte16; 10^6 CFU/ml
Method: as §1, §2

[18] = test system: P. maltophilia IID 1275; details: Stenotrophomonas maltophilia, IID1275; P. maltophilia IID 1275; 10^6 CFU/ml; read-out: Minimum Inhibitory Concentration
Method: as §1, §2

[19] = test system: S. aureus JS-1; details: Staphylococcus aureus, JS1; S. aureus JS-1; 10^6 CFU/ml; read-out: Minimum Inhibitory Concentration
Method: as §1, §2

[20] = test system: P. vulgaris No. 33; details: Proteus vulgaris
Method: as §1, §2

[21] = test system: C. freundii No. 7; details: Citrobacter freundii; C. freundii No. 7; 10^6 CFU/ml; read-out: Minimum Inhibitory Concentration
Method: as §1, §2

[22] = P. vulgaris No. 33, 10^6 CFU/ml, read-out: Minimum Inhibitory Concentration
[23] = P. mirabilis JY10, 10^6 CFU/ml, read-out: Minimum Inhibitory Concentration
[24] = K. pneumoniae No. 42, 10^6 CFU/ml, read-out: Minimum Inhibitory Concentration

Row | Compound | MIC [1] [µg/mL] | MIC [2] [µg/mL] | MIC [3] [µg/mL] | MIC [5] [µg/mL] | MIC [6] [µg/mL] | MIC [7] [µg/mL] | MIC [8] [µg/mL] | MIC [9] [µg/mL] | MIC [10] [µg/mL] | MIC [11] [µg/mL] | MIC [12] [µg/mL] | MIC [13] [µg/mL] | MIC [14] [µg/mL] | MIC [16] [µg/mL] | MIC [17] [µg/mL] | MIC [18] [µg/mL] | MIC [19] [µg/mL] | MIC [20, 22] [µg/mL] | MIC [21] [µg/mL] | MIC [4, 23] [µg/mL] | further results
1 | CON=C(C(=O)NC1C(=O)N2C(C(=O)[O-])=C(C[N+]3(C)CCc4c(ccc(O)c4O)C3)CSC12)c1csc(N)n1 (stereo not drawn) [Ex. 11, 7-[(Z)-2-(2-aminothiazol-4-yl)-2-methoxyiminoacetamido]-3-(5,6-dihydroxy-2-methyl-1,2,3,4-tetrahydro-2-isoquinolinium)methyl-3-cephem-4-carboxylate] | 6.25 (≈ 10.9 µM) | 0.2 (≈ 0.348 µM) | 0.2 (≈ 0.348 µM) | 0.78 (≈ 1.36 µM) | 0.025 (≈ 0.0435 µM) | 0.05 (≈ 0.087 µM) | 12.5 (≈ 21.8 µM) | 0.78 (≈ 1.36 µM) | 0.025 (≈ 0.0435 µM) | 1.56 (≈ 2.71 µM) | 0.39 (≈ 0.679 µM) | 0.39 (≈ 0.679 µM) | 0.1 (≈ 0.174 µM) | 6.25 (≈ 10.9 µM) | 0.1 (≈ 0.174 µM) | > 50 | 25 (≈ 43.5 µM) | 0.2 (≈ 0.348 µM) | 12.5 (≈ 21.8 µM) | – | MIC ([4]; JY10, read-out: Minimum Inhibitory Concentration): 0.39 µg/mL (≈ 0.679 µM); MIC ([15]; NO.42, read-out: Minimum Inhibitory Concentration): 0.39 µg/mL (≈ 0.679 µM)
2 | CON=C(C(=O)NC1C(=O)N2C(C(=O)[O-])=C(C[N+]3(C)CCc4cc(O)c(O)c(O)c4C3)CSC12)c1csc(N)n1 (stereo not drawn) [Ex. 12, 7-[(Z)-2-(2-aminothiazol-4-yl)-2-methoxyiminoacetamido]-3-(2-methyl-1,2,3,4-tetrahydro-6,7,8-trihydroxy-2-isoquinolinium)methyl-3-cephem-4-carboxylate] | 50 (≈ 84.7 µM) | 25 (≈ 42.3 µM) | 1.56 (≈ 2.64 µM) | 3.12 (≈ 5.28 µM) | 0.78 (≈ 1.32 µM) | 0.78 (≈ 1.32 µM) | 100 (≈ 169 µM) | 3.12 (≈ 5.28 µM) | 1.56 (≈ 2.64 µM) | 3.12 (≈ 5.28 µM) | 1.56 (≈ 2.64 µM) | 25 (≈ 42.3 µM) | 0.78 (≈ 1.32 µM) | 25 (≈ 42.3 µM) | 1.56 (≈ 2.64 µM) | 100 (≈ 169 µM) | 50 (≈ 84.7 µM) | 1.56 (≈ 2.64 µM) | 12.5 (≈ 21.2 µM) | 0.78 (≈ 1.32 µM) | MIC [15, 24]: 1.56 µg/mL (≈ 2.64 µM)
3 | C[N+]1(CC2=C(C(=O)[O-])N3C(=O)C(NC(=O)C(=NOC4(C(=O)O)CC4)c4csc(N)n4)C3SC2)CCc2cc(O)c(O)cc2C1 (stereo not drawn) [Ex. 17-E, 7-[(Z)-2-(2-aminothiazol-4-yl)-2-(1-carboxy-1-cyclopropoxyimino)acetamido]-3-(6,7-dihydroxy-2-methyl-1,2,3,4-tetrahydro-2-isoquinolinium)methyl-3-cephem-4-carboxylate] | 0.1 (≈ 0.155 µM) | ≤ 0.05 | ≤ 0.05 | ≤ 0.05 | ≤ 0.05 | ≤ 0.05 | 0.39 (≈ 0.605 µM) | ≤ 0.05 | ≤ 0.05 | ≤ 0.05 | ≤ 0.05 | 0.1 (≈ 0.155 µM) | ≤ 0.05 | 12.5 (≈ 19.4 µM) | ≤ 0.05 | 1.56 (≈ 2.42 µM) | > 25 | – | 1.56 (≈ 2.42 µM) | ≤ 0.05 | MIC [15, 24]: ≤ 0.05 µg/mL; MIC ([20]; NO.33, read-out: Minimum Inhibitory Concentration): ≤ 0.05 µg/mL
